Source: patent publication US10828308B2, “Treatment of non-alcoholic fatty liver disease or non-alcoholic steatohepatitis with delayed-release 6-mercaptopurine” (Hadasit Medical Research Services and Development Ltd., priority 2015, dated 2020)

Test system: STAM model of non-alcoholic steatohepatitis (NASH mice)
Experiment: In vivo efficacy study of DR6-MP in STAM model of non-alcoholic steatohepatitis
Design: species or system C57BL/6 mice
Settings: 10 mg/kg orally once daily from 6 to 9 weeks of age
Text: Pathogen-free 14 day-pregnant C57BL/6 mice were obtained. NASH was established in male mice by a single subcutaneous injection of 200 τg streptozotocin after birth and feeding with a high fat diet ad libitum after 4 weeks of age (day 28±2). Mice were randomized into 5 groups of 8 mice at 6 weeks of age (day 42±2), the day before the start of treatment. Group 1 (Normal): Eight normal mice were fed with normal diet ad libitum without any treatment until 9 weeks of age. Group 2 (Vehicle): Eight NASH mice were orally administered vehicle [0.5% Methyl cellulose] in a volume of 10 mL/kg once daily from 6 to 9 weeks of age. […]
Mice in all groups were sacrificed for the following assays at 9 weeks of age: • Measurement of organ weight • Individual liver weight was measured. • Liver-to-body weight ratio was calculated. • Biochemical assays • Serum ALT and AST levels were measured. • Liver triglyceride contents were quantified. • Histological analyses for liver sections (according to a routine method). • HE staining and estimation of NAFLD Activity score. • Sirius-red staining and estimation of fibrosis area. • Immunochemical staining for F4/80 and estimation of the percentage of inflammation area. • Gene expression assays using total RNA from the liver. • Real-time RT-PCR analyses were performed for TNF-α, INF-γ, IL-10, MCP-1, CCR2, α-SMA, TGF-β, Collagen Type 1, Collagen Type 3, TIMP-1.

## CCCc1nc2c(C)cc(-c3nc4ccccc4n3C)cc2n1Cc1ccc(-c2ccccc2C(=O)O)cc1 [Telmisartan]
  fibrosis area (Sirius red-positive area) compared with the Vehicle group: significant decreases in fibrosis area
Liver sections at 9 weeks
  Sirius red-positive area (%) (mean ± SD): 0.74 ± 0.21%
